Series [1] deals with human H1N1 influenza A virus A/Puerto Rico/8/1934 (PR8). As to conditions: human virus A/Puerto Rico/8/1934 (PR8).
The next series relates to PR8 virus. Also noted: species or system influenza A virus.
Series [2] has as its target H1 HA of A/Puerto Rico/8/1934 H1N1 influenza virus (influenza A virus A/Puerto Rico/8/1934 H1N1) (UniProt P03452). The series can be described thus: cell-based or functional assay.

The term IC50 denotes the concentration that gives 50% inhibition. Read a high IC50 as a need for much substance.

Where a SMILES comes first, the peptide text is derived from it.

Regarding `CC[C@H](C)[C@H](NC(=O)CNC(=O)[C@H](CC(C)C)NC(=O)CNC(=O)[C@H](C)NC(=O)CNC(=O)[C@H](CCCCN)NC(=O)[C@H](C)NC(=O)[C@@H](NC(=O)CNC(=O)[C@@H](NC(=O)[C@H](C)NC(=O)[C@@H](NC(=O)[C@H](CC(=O)O)NC(=O)[C@H](CCCCN)NC(=O)[C@H](CC(C)C)NC(=O)[C@H](CCCCN)NC(=O)[C@@H](NC(=O)[C@@H](NC(=O)[C@H](Cc1ccccc1)NC(=O)[C@@H](N)CO)C(C)C)[C@@H](C)O)C(C)C)[C@@H](C)CC)C(C)C)C(=O)N[C@@H](CC(C)C)C(=O)N[C@@H](CCCCN)C(=O)N[C@H](C(=O)N[C@@H](CC(C)C)C(=O)N[C@H](C(=O)N[C@@H](CS)C(=O)N[C@@H](CCCCN)C(=O)N[C@@H](CC(C)C)C(=O)N[C@@H](CC(=O)O)C(=O)N[C@@H](CC(N)=O)C(=O)N[C@@H](CO)C(=O)N[C@@H](CS)C(=O)N[C@@H](C)C(=O)O)[C@@H](C)O)[C@@H](C)O` [Peptide 28] (H-SFVTKLKDVAIGVAKGAGLGILKTLTCKLDNSCA-OH), the hemolytic activity result in the series with human erythrocytes (at 10 μM) is recorded as “hemolytic activity”.

As to `CC[C@H](C)[C@H](N)C(=O)N1CCC[C@H]1C(=O)N[C@@H](CC(C)C)C(=O)N[C@@H](CCCNC(=N)N)C(=O)NCC(=O)N[C@@H](C)C(=O)N[C@@H](Cc1ccccc1)C(=O)N[C@H](C(=O)N[C@@H](CC(N)=O)C(=O)NCC(=O)N[C@@H](CCCNC(=N)N)C(=O)N[C@@H](Cc1c[nH]c2ccccc12)C(=O)N[C@@H](CC(=O)O)C(=O)N[C@@H](CO)C(=O)N[C@@H](CCC(N)=O)C(=O)N[C@@H](CS)C(=O)N[C@@H](Cc1c[nH]cn1)C(=O)N[C@@H](CCCNC(=N)N)C(=O)N[C@@H](Cc1ccccc1)C(=O)N[C@@H](CO)C(=O)N[C@@H](CC(N)=O)C(=O)NCC(=O)N[C@@H](C)C(=O)N[C@H](C(=O)N[C@@H](C)C(=O)N[C@@H](CS)C(=O)N[C@@H](C)C(=O)O)[C@@H](C)CC)[C@@H](C)CC` [Urumin] (H-IPLRGAFINGRWDSQCHRFSNGAIACA-OH), the IC50 in series [1] was found to be 3.8 µM. Further, in the series with human erythrocytes, the “concentration reaching a 20% level of toxicity” value was found to be 1430 µM and the “toxicity to human erythrocytes (hemolysis)” value is on record as “no toxicity”.

On to OVA257-264 peptide [OVA peptide], for which, in the series with PR8 virus, the “integrity of virus particles by electron microscopy” value is reported as “appear intact”.

In turn, Urumin (peptide) came in with an IC50, plaque assay against PR8 virus in series [2] of 3.8 µM.

Values taken from US20190367567A1 (priority 2016, published 2019).
